The source of these data is patent US20230365537A1, “POLO LIKE KINASE 4 INHIBITORS” (ORIC Pharmaceuticals, Inc., priority 2021, published 2023).

The term IC50 denotes the point on the concentration scale where inhibition reaches its midpoint.

The target of test [1] is human recombinant Aurora A (Homo sapiens (Human), UniProt O14965). Description: Aurora A Kinase Biochemical Assay (ADP-Glo). The following applies: ratio of Aurora A IC50 to PLK4 IC50 (selectivity). A general note: In ADP-Glo the light output rises with the ADP produced.
Sequence of human recombinant Aurora A (O14965 whole entry): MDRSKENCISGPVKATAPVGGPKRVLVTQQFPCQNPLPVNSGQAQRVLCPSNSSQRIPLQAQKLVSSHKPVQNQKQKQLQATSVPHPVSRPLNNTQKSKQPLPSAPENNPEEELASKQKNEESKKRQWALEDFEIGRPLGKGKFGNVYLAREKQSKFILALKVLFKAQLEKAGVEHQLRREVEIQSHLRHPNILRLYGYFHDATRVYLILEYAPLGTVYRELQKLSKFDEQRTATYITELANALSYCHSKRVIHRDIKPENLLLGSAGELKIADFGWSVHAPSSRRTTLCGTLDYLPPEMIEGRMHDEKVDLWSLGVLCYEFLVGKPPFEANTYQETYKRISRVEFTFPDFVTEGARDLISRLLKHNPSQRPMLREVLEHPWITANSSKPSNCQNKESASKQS
The test system of test [2] is CHP-134 cells. Put plainly: CHP134 CellTiter-Glo (CTG) Assay. It is filed as cell-based. As to conditions: 5 days, viable cells by CellTiter-Glo. The procedure:
Cells were seeded (200 cells/well) in 384-well plates for 16 hours. On day two, nine serial 1:3 compound dilutions were made in DMSO in a 96-well plate. The compounds were then further diluted into growth media using a BRAVO robot (Agilent, Santa Clara, CA). The diluted compounds were then added to quadruplicate wells in the 384-well cell plate and incubated at 37° C. and 5% CO2. After 5 days, relative numbers of viable cells were measured by luminescence using CellTiter-Glo® (Promega) according to the manufacturer’s instructions and read on a SPARK Multimode Microplate Reader (Tecan, Mannedorf Switzerland). The IC50 calculations for the values reported in Table 2 were carried out using Prism 6.0 software (GraphPad, San Diego).

The target in test [3] is human recombinant PLK4 (Homo sapiens (Human), UniProt O00444). Description: PLK4 Biochemical Assay (ADP-Glo). As to conditions: 0.5 nM PLK4, 8.0 µM ATP, 4.7 µM MBP, 6 hours at RT. The method, boiled down: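 Luminescent ADP-Glo detection quantified ADP production, with ATP depletion for 40 min and detection for 30 min at room temperature. Compound and PLK4 (1.0 nM stock addition) were preincubated 15 min in HEPES pH 7.5 buffer containing MgCl2, EGTA, DTT, Brij-35 and BSA. IC50 values were obtained by four-parameter nonlinear regression.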
Sequence of human recombinant PLK4 (O00444 whole entry): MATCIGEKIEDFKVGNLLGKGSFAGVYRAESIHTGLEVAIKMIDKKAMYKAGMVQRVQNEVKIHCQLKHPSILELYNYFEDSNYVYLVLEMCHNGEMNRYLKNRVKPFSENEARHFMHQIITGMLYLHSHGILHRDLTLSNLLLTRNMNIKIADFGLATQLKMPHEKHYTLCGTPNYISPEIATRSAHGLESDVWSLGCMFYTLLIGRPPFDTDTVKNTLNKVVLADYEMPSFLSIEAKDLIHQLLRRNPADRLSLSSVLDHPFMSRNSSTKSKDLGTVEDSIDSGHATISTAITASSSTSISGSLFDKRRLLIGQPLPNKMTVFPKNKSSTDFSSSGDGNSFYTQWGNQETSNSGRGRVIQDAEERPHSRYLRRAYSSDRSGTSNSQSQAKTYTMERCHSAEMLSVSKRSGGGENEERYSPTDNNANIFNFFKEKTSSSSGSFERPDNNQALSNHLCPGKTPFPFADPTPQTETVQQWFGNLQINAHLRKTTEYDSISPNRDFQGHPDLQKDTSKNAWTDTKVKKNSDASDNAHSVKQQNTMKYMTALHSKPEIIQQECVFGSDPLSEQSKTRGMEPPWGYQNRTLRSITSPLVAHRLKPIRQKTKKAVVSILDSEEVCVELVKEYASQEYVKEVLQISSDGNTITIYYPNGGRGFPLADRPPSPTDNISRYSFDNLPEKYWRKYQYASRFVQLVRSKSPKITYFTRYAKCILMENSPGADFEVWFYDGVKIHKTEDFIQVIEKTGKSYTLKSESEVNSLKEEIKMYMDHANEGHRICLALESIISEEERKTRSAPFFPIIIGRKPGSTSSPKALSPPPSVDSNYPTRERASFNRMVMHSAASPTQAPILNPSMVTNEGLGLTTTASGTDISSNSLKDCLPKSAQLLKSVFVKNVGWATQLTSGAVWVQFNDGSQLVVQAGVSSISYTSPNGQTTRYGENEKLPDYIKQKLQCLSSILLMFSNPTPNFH

For test [4], the target named is human recombinant Aurora B (Homo sapiens (Human), UniProt Q96GD4). Description: Aurora B Kinase Biochemical Assay (ADP-Glo). As to conditions: ratio of Aurora B IC50 to PLK4 IC50 (selectivity). The method, boiled down: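 IC50 derived by four-parameter nonlinear fit of ADP-Glo luminescence (ADP produced). Compound was preincubated 15 min at RT with 20 nM recombinant human Aurora B, in 50 mM HEPES pH 7.5, 10 mM MgCl2, 1 mM EGTA, 1 mM DTT, 0.01% Brij-35/BSA.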
Sequence of human recombinant Aurora B (Q96GD4 whole entry): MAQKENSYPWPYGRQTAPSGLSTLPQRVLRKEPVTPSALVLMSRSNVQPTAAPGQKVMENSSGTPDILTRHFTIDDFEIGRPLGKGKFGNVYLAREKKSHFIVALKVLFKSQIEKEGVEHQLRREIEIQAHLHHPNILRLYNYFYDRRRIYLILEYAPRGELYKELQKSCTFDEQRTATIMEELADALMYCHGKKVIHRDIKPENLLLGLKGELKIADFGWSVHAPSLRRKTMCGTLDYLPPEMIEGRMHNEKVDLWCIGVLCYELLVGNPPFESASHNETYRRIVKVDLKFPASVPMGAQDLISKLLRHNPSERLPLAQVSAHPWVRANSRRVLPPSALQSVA

In the case of `COc1ccc2c(c1)[C@]1(C[C@H]1c1ccc3c(Nc4nc(C5CCOC5)ncc4OC)n[nH]c3c1)C(=O)N2` (single isomer, unassigned) [Example 201], the “[Aurora A IC50 (nM)]/[PLK4 IC50 (nM)]” value in test [1] was determined as 485.6389. The IC50 in test [2] (Homo sapiens, CHP-134, 120 h) is 455 nM; in test [3], 1.71 nM. In addition, the “[Aurora B IC50 (nM)]/[PLK4 IC50 (nM)]” value in test [4] is on record as 229.0739.
Take `COc1ccc2c(c1)[C@]1(C[C@H]1c1ccc3c(Nc4ccc([S+](C)[O-])nc4OC)n[nH]c3c1)C(=O)N2` (single isomer, unassigned) [Example 239]: the “[Aurora A IC50 (nM)]/[PLK4 IC50 (nM)]” value in test [1] was determined as 1429.5857. Also, the IC50 in test [2] amounted to 949 nM; in test [3], 1.69 nM. For the same compound, the “[Aurora B IC50 (nM)]/[PLK4 IC50 (nM)]” value in test [4] worked out at 466.8047.
For `COc1ccc2c(c1)[C@]1(C[C@H]1c1ccc3c(Nc4ccc([S+](C)[O-])nc4OC)n[nH]c3c1)C(=O)N2` (single isomer, unassigned) [Example 240], in that order: 735.1996, 422 nM, 2.18 nM and 102.4323.
`COc1ccc2c(c1)[C@]1(CC1c1ccc3c(/C=C/c4ccc(CN5C[C@@H](C)O[C@@H](C)C5)cc4)n[nH]c3c1)C(=O)N2` (stereo partly drawn) [CFI-400495, reference compound] yielded a half-inhibitory concentration (IC50) in test [2] (Homo sapiens, CHP-134, 120 h) of 9.08 nM.
For the compound `COc1ccc2c(c1)[C@]1(C[C@H]1c1ccc3c(Nc4ncnc(N5CCOCC5)c4Cl)n[nH]c3c1)C(=O)N2` [Example 9, (1R,2S)-2-(3-{[5-Chloro-6-(morpholin-4-yl)pyrimidin-4-yl]amino}-1H-indazol-6-yl)-5′-methoxyspiro[cyclopropane-1,3′-indol]-2′(1′H)-one], the “[Aurora A IC50 (nM)]/[PLK4 IC50 (nM)]” value in test [1] was determined as 4791.187. In addition, the IC50 in test [2] (Homo sapiens, CHP-134, 120 h) was found to be 99.7 nM; in test [3] it was 0.694 nM. Also, the “[Aurora B IC50 (nM)]/[PLK4 IC50 (nM)]” value in test [4] amounted to 240.6394.
On to `COc1ccc2c(c1)[C@]1(C[C@H]1c1ccc3c(Nc4nc(Cl)ncc4OC)n[nH]c3c1)C(=O)N2` [Example 10, (1R,2S)-2-{3-[(2-Chloro-5-methoxypyrimidin-4-yl)amino]-1H-indazol-6-yl}-5′-methoxyspiro[cyclopropane-1,3′-indol]-2′(1′H)-one], for which, in test [1], the “[Aurora A IC50 (nM)]/[PLK4 IC50 (nM)]” value amounted to 954.6314. The IC50 in test [2] (Homo sapiens, CHP-134, 120 h) is 438 nM; in test [3] it was 1.59 nM. Besides, in test [4], the “[Aurora B IC50 (nM)]/[PLK4 IC50 (nM)]” value worked out at 103.0876.
For `COc1ccc2c(c1)[C@]1(C[C@H]1c1ccc3c(Nc4ncnc(N5CCOCC5)c4OC)n[nH]c3c1)C(=O)N2` [Example 11, (1R,2S)-5′-Methoxy-2-(3-{[5-methoxy-6-(morpholin-4-yl)pyrimidin-4-yl)amino}-1H-indazol-6-yl)spiro[cyclopropane-1,3′-indol]-2′(1′H)-one], in that order: 3277.276, 2950 nM, 4.88 nM and 77.87.
For `COc1ccc2c(c1)[C@]1(C[C@H]1c1ccc3c(Nc4ncnc(N5CCCCC5)c4OC)n[nH]c3c1)C(=O)N2` [Example 12, (1R.2S)-5′-Methoxy-2-(3-{[5-methoxy-6-(piperidin-1-yl)pyrimidin-4-yl]amino}-1H-indazol-6-yl)spiro[cyclopropane-1,3′-indol]-2′(1′H)-one], the IC50 in test [2] (Homo sapiens, CHP-134, 120 h) was 2030 nM; in test [3] it was 4.96 nM.
As for `COc1ccc2c(c1)[C@]1(C[C@H]1c1ccc3c(Nc4ncnc(N5CCN(C)CC5)c4Cl)n[nH]c3c1)C(=O)N2` [Example 20, (1R,2S)-2-(3-{[5-chloro-6-(4-methylpiperazin-1-yl)pyrimidin-4-yl]amino}-1H-indazol-6-yl)-5′-methoxyspiro[cyclopropane-1,3′-indol]-2′(1′H)-one], the “[Aurora A IC50 (nM)]/[PLK4 IC50 (nM)]” value in test [1] is given as 4489.796. Further, the half-inhibitory concentration (IC50) in test [2] (Homo sapiens, CHP-134, 120 h) was found to be 263 nM; in test [3], 2.25 nM. For the same compound, the “[Aurora B IC50 (nM)]/[PLK4 IC50 (nM)]” value in test [4] is 306.8323.
For `COc1ccc2c(c1)[C@]1(C[C@H]1c1ccc3c(Nc4nc(OC)ncc4Cl)n[nH]c3c1)C(=O)N2` [Example 23, (1R,2S)-2-{3-[(5-chloro-2-methoxypyrimidin-4-yl)amino]-1H-indazol-6-yl}-5′-methoxyspiro[cyclopropano-1,3′-indol]-2′(1′H)-one] the same measures were 215.5309, 45.9 nM, 5.05 nM and 170.7409.
As to `COc1ccc2c(c1)[C@]1(C[C@H]1c1ccc3c(Nc4nc(C)nc(N5CCOCC5)c4OC)n[nH]c3c1)C(=O)N2` [Example 41, (1R,2S)-5′-methoxy-2-(3-{[5-methoxy-2-methyl-6-(morpholin-4-yl)pyrimidin-4-yl]amino}-1H-indazol-6-yl)spiro[cyclopropane-1,3′-indol]-2′(1′H)-one], the “[Aurora A IC50 (nM)]/[PLK4 IC50 (nM)]” value in test [1] is on record as 2257.47. Besides, the IC50 in test [2] (Homo sapiens, CHP-134, 120 h) came to 844 nM; in test [3] it was 2.71 nM. Besides, the “[Aurora B IC50 (nM)]/[PLK4 IC50 (nM)]” value in test [4] was 471.4128.
In test [2] (Homo sapiens, CHP-134, 120 h), `COc1ccc2c(c1)[C@]1(C[C@H]1c1ccc3c(Nc4nc(OC)ncc4OC)n[nH]c3c1)C(=O)N2` [Example 156, (1R,2S)-2-{3-[(2,5-dimethoxypyrimidin-4-yl)amino]-1H-indazol-6-yl}-5′-methoxyspiro[cyclopropane-1,3′-indol]-2′(1′H)-one] returned an IC50 of 494 nM.
Take `COc1ccc2c(c1)[C@]1(C[C@H]1c1ccc3c(Nc4cc(N5CCN(C)C5=O)cnc4OC)n[nH]c3c1)C(=O)N2` [Example 221, (1R,2S)-5′-methoxy-2-(3-{[2-methoxy-5-(3-methyl-2-oxoimidazolidin-1-yl)pyridin-3-yl]amino}-1H-indazol-6-yl)spiro[cyclopropane-1,3′-indol]-2′(1′H)-one]: in test [2] (Homo sapiens, CHP-134, 120 h), the midpoint of inhibition, the IC50, lay at 849 nM.
For the compound `COc1ccc2c(c1)[C@]1(C[C@H]1c1ccc3c(Nc4cc(S(=O)(=O)C5CCOCC5)ccc4OC)n[nH]c3c1)C(=O)N2` [Example 224, (1R,2S)-5′-methoxy-2-{3-[2-methoxy-5-(oxane-4-sulfonyl)anilino]-1H-indazol-6-yl}spiro[cyclopropane-1,3′-indol]-2′(1′H)-one], the half-maximal inhibitory concentration (IC50) in test [2] (Homo sapiens, CHP-134, 120 h) is 2020 nM.
Regarding `CCOc1cc(S(=O)(=O)NC)cnc1Nc1n[nH]c2cc([C@@H]3C[C@@]34C(=O)Nc3ccc(OC)cc34)ccc12` [Example 275, 5-ethoxy-6-({6-[(1R,2S)-5′-methoxy-2′-oxo-1′,2′-dihydrospiro[cyclopropane-1,3′-indol]-2-yl]-1H-indazol-3-yl}amino)-N-methylpyridine-3-sulfonamide], the “[Aurora A IC50 (nM)]/[PLK4 IC50 (nM)]” value in test [1] turned out to be 2162.7118. In addition, the half-maximal inhibitory concentration (IC50) in test [3] came to 0.59 nM. For the same compound, the “[Aurora B IC50 (nM)]/[PLK4 IC50 (nM)]” value in test [4] is given as 230.
Regarding `CCOc1cc(=O)n(C)nc1Nc1n[nH]c2cc([C@@H]3C[C@@]34C(=O)Nc3ccc(OC)cc34)ccc12` [Example 277, (1R,2S)-2-{3-[(4-ethoxy-1-methyl-6-oxo-1,6-dihydropyridazin-3-yl)amino]-1H-indazol-6-yl}-5′-methoxyspiro[cyclopropane-1,3′-indol]-2′(1′H)-one], the “[Aurora A IC50 (nM)]/[PLK4 IC50 (nM)]” value in test [1] is 1120.5641. In test [3], the half-inhibitory concentration (IC50) was 2.2 nM. Moreover, the “[Aurora B IC50 (nM)]/[PLK4 IC50 (nM)]” value in test [4] came to 1049.1355.
For `COc1ccc2c(c1)[C@]1(C[C@H]1c1ccc3c(Nc4nc(C(C)(C)O)ccc4OC)n[nH]c3c1)C(=O)N2` [Example 278, (1R,2S)-2-(3-{[6-(2-hydroxypropan-2-yl)-3-methoxypyridin-2-yl]amino}-1H-indazol-6-yl)-5′-methoxy-1′H-spiro[cyclopropane-1,3′-indol]-2′-one], in that order: 1269.9004, 0.804 nM and 423.6318.
As to `CCOc1cc(S(C)(=O)=O)ncc1Nc1n[nH]c2cc([C@@H]3C[C@@]34C(=O)Nc3ccc(OC)cc34)ccc12` [Example 279, (1R,2S)-2-{3-[(4-ethogy-6-methanesulfonylpyridin-3-yl)amino]-1H-indazol-6-yl}-5′-methoxy-1′H-spiro[cyclopropane-1,3′-indol]-2′-one], in test [1], the “[Aurora A IC50 (nM)]/[PLK4 IC50 (nM)]” value amounted to 37425.1497. Moreover, in test [3], the IC50 turned out to be 1.34 nM. Besides, the “[Aurora B IC50 (nM)]/[PLK4 IC50 (nM)]” value in test [4] was 2792.6646.
Consider `COc1ccc2c(c1)[C@]1(C[C@H]1c1ccc3c(Nc4ncc(S(=O)(=O)C(F)F)cc4OC)n[nH]c3c1)C(=O)N2` [Example 280, (1R,2S)-2-{3-[(5-difluoromethanesulfonyl-3-methoxypyridin-2-yl)amino]-1H-indazol-6-yl}-5′-methoxy-1′H-spiro[cyclopropane-1,3′-indol]-2′-one], for which the “[Aurora A IC50 (nM)]/[PLK4 IC50 (nM)]” value in test [1] was 727.2256. Besides, the IC50 in test [3] came to 1.93 nM. Also, in test [4], the “[Aurora B IC50 (nM)]/[PLK4 IC50 (nM)]” value was found to be 309.1097.
